Reference: patent US20060135587A1, “Method and compounds for promoting healing and reducing inflammation” (priority 2002, published 2006)
Read-outs that look alike come from different tables or passages of the source.

Columns and labels:
[1] = Rat peripheral blood indicators during full-thickness skin wound treatment; type: in vivo, rats
Protocol: Peripheral blood indicators (leucocytes, leucocyte formula, erythrocyte sedimentation rate) of the rats from the test and control groups were measured before the animals were wounded, and then checked on the fifth, tenth and fifteenth days of the experiment. No reproducible changes compared to the blood characteristics of the intact animals prior to wounding were identified from the haematological indicators of rats treated with Compound 2.

[2] = system: acute Con A-induced inflammation; assay: Acute Con A-induced inflammation (paw oedema) in mice; type: in vivo
Protocol: Saline solution was similarly administered to the control animals. There were 10 mice in each group. After one hour, con A at a dose of 100 mkg/20 g of body weight was administered by sub-plantar injection into the plantar aponeurosis of the left paws of mice of both the experimental and control groups. The same amount of saline splution was injected into the contralateral paws. After one hour, the mice were killed and the experimental and control paws were weighed to assess the reaction index of the inflammation in the ankle-joint (Liubimov et al, 1999).
The anti-inflammatory effect of Compound 2 and Compound 7 was compared in male mice weighing 18-22 g, using the model described in Example 9. The ED50, i.e. the dose reducing paw ooedema by 50% one hour after injection of Concanavalin A, was calculated.

[3] = system: regeneration of liver after partial hepatectomy; assay: Liver regeneration after partial hepatectomy in rats; type: in vivo; details: for Level of recovery: 7 days, hepatectomy alone = 100
Protocol: Partial hepatectomy was performed using the conventional method (Higgins and Anderson, 1931) by removing the left lateral and central lobes of the liver from 80 male white rats, weighing 180-200 g.
Compound 2, Compound 4, Compound 5 or Compound 6 was administered to the experimental groups intraperitoneally in equimolar doses of 0.1 mM/kg and 0.2 mM/kg. These optimal doses were determined in preliminary experiments. The control group received intraperitoneal injections of saline solution. The compounds were administered on the day after the operation and then one injection was given daily over the course of 7 days, since maximum growth of the liver mass in rats is observed in the first 7 days after partial hepatectomy (Solopaev, 1980).
The effectiveness of the compounds was compared to that of a combination of non-steroid anabolic regeneration stimulators which are used in the treatment of liver pathology, namely Riboxin and potassium orotate at a dose of 0.2 mM/kg each (Rychnev and Frolov, 1984).
For quantitative evaluation of the regeneration process in the liver the coefficient of regeneration completion as determined by the formula below was used: [formula] where
Stimulation of the regeneration of tissue after hepatectomy in response to different medicinal preparations is associated with an increase in the synthesis of nucleic acids, as indicated by the increase in the content of RNA and DNA in the regenerated tissue. Quantitative analysis of DNA and RNA was performed by centrifugation. […] The enzymic component of anti-oxidant protection was also assessed on the basis of the activity of catalase and superoxidedismutase (SOD).
5 ml of […] of HCIO4 solution were added to the sample (100 mg). In order to ensure complete sedimentation of the acid-insoluble fraction, the beakers were put in ice for 15 minutes. Then they were centrifuged for 10 minutes at 5000 revolutions per minute. The sediment was washed twice with 0.2 M HCIO4. After the final centrifugation, the walls of the beaker were carefully dried with gauze and filter paper. The sediment was ground down with a glass pestle, suspended in 1 ml of water and then 1 ml of 0.6 M KON solution was added at room temperature. Hydrolysis was performed over the course of 1 hour at 37° C., then the beakers were put in ice to stop the hydrolysis process. 4 ml of the 0.6 M solution were added to each beaker and the beakers were left in ice for another 15 minutes, then centrifuged for 15 minutes at 5000 revolutions per minute. The supernatant was used to determine the RNA by UV absorption at 260 nm and 290 nm compared to the control sample containing 0.4M of HCIO4). The amount of RNA in μg per 1 ml of the supernatant was calculated using the following formula: [formula] where C=is the RNA concentration (μg/ml)
DNA analysis was carried out on the sediment remaining after the alkaline hydrolysis used to determine RNA. 0.5 M of HCIO4 (5 ml per sample) was poured into the dried beaker containing the sediment. Hydrolysis was performed in a boiling water bath for 20 minutes. The amount of DNA in μg per 1 ml of the hydrolysate was calculated using the following formula: [formula] where C=is the DNA concentration (μg/ml). Catalase Activity
Catalase activity was determined using the permanganate method. The optimal amount of the substrate (3 ml of 1% H2O2) and 1 ml of the enzyme were added to 10 ml of phosphate buffer, pH 7.8. After 10 minutes the reaction was stopped by adding 1.5 ml of H2SO4 (50%). The remaining hydrogen peroxide was filtered with 0.1M of KMnO4 solution. Catalase activity was calculated on the basis that 1 ml of 0.1M of KMnO4 solution corresponds to […] of H2O2.
SOD activity was determined using the dianisidine method, which is based on the fact that under ultraviolet irradiation Riboflavin (Rb) is converted to an excited (ionised) state and therefore becomes able to attack reduced dianisidine (DH2). […]

[4] = Table 4, 0.005M dose (Compound 2 19 mg/kg, Compound 7 16.4 mg/kg) + Con A
[5] = Table 4, 0.01M dose (Compound 2 38 mg/kg, Compound 7 32 mg/kg) + Con A
[6] = Table 4, 0.015M dose (Compound 2 57 mg/kg, Compound 7 49 mg/kg) + Con A
[7] = Table 4, 0.02M dose (Compound 2 76 mg/kg, Compound 7 65.6 mg/kg) + Con A

Protocol for white male mice: The acute toxicity of 1,3-dialkyl-4,5-bis (N-methylcarbamoyl)imidazolium salts was assessed following intraperitoneal injection into 200 white male mice weighing 18 to 20 g. Dead animals were counted daily after the administration of the test substance.

CC[n+]1cn(C)c(C(=O)NC)c1C(=O)NC.O=S(=O)([O-])c1ccccc1 [Compound 2, 1-methyl-3-ethyl-4,5-bis(N-methylcarbamoyl)-imidazolium benzenesulfonate]
LD50 (white male mice; intraperitoneal injection, white male mice, 14 days observation): 764 mg/kg | LD50 (white male mice; mice, given intraperitoneally, text b404): 1920 mg/kg | ESR mm/h ([1]; day 5): 2.2 ± 0.6 mm/h | Leucocyte count (%) Band neutrophils ([1]; day 5): 1.4 ± 0.4% | Leucocyte count (%) Segmented neutrophils ([1]; day 5): 35.2 ± 4.4% | Leucocyte count (%) basophils ([1]; day 5): 0% | Leucocyte count (%) eosinophils ([1]; day 5): 2.6 ± 0.6% | Leucocyte count (%) lymphocytes ([1]; day 5): 52.6 ± 4.5% | Leucocyte count (%) monocytes ([1]; day 5): 8.2 ± 0.8% | Leucocytes 10^9/l ([1]; day 5): 6.6 ± 0.9 10^9/l | ESR mm/h ([1]; day 10): 1.0 ± 0 mm/h | Leucocyte count (%) Band neutrophils ([1]; day 10): 1.2 ± 0.2% | Leucocyte count (%) Segmented neutrophils ([1]; day 10): 29.6 ± 2.2% | Leucocyte count (%) basophils ([1]; day 10): 0.6 ± 0.2% | Leucocyte count (%) eosinophils ([1]; day 10): 2.4 ± 0.5% | Leucocyte count (%) lymphocytes ([1]; day 10): 63.8 ± 1.9% | Leucocyte count (%) monocytes ([1]; day 10): 2.4 ± 0.5% | Leucocytes 10^9/l ([1]; day 10): 7.9 ± 0.6 10^9/l | European Search Report mm/h ([1]; day 15): 1.4 ± 0.2 mm/h | Leucocyte count (%) Band neutrophils ([1]; day 15): 1.2 ± 0.2% | Leucocyte count (%) Segmented neutrophils ([1]; day 15): 21.0 ± 3.1% | Leucocyte count (%) basophils ([1]; day 15): 0.4 ± 0.2% | Leucocyte count (%) eosinophils ([1]; day 15): 2.8 ± 0.2% | Leucocyte count (%) lymphocytes ([1]; day 15): 70.6 ± 3.4% | Leucocyte count (%) monocytes ([1]; day 15): 4.0 ± 0.7% | Leucocytes 10^9/1 ([1]; day 15): 11.1 ± 1.6 10^9/1 | Reaction index (%) ([2]; Table 3, 10 mg/kg intra-peritoneally one hour before Con A, male CBA mice): 10.4 ± 2.0 % | Reaction index (%) ([2]; Table 3, 50 mg/kg intra-peritoneally one hour before Con A, male CBA mice): 8.4 ± 0.9 % | Paw oedema reduction (%) [2, 4]: 66% | Reaction index (%) [2, 4]: 5.4 ± 2.0% | Paw oedema reduction (%) [2, 5]: 52% | Reaction index (%) [2, 5]: 7.7 ± 1.8% | Paw oedema reduction (%) ([2]; Table 4, 10 mg/kg + Con A): 33% | Reaction index (%) ([2]; Table 4, 10 mg/kg + Con A): 11.1 ± 3.5% | Paw oedema reduction (%) [2, 6]: 66% | Reaction index (%) [2, 6]: 5.3 ± 2.0% | Paw oedema reduction (%) [2, 7]: 77% | Reaction index (%) [2, 7]: 3.3 ± 2.0% | ED50, dose reducing paw oedema by 50% one hour after injection of Concanavalin A ([2]; male mice): 33 mg/kg | Catalase E activity ([3]; 0.1 mM/kg): 18.0 ± 3.1 μgM/min/g tissue × 1000 | DNA content (in mg/g of tissue) ([3]; 0.1 mM/kg): 4.2 ± 0.37 mg/g of tissue | Protein content ([3]; 0.1 mM/kg): 86.4 ± 9.8 Mg/g tissue | RNA content (mg/g of tissue) ([3]; 0.1 mM/kg): 7.07 ± 0.18 mg/g of tissue | SOD activity ([3]; 0.1 mM/kg): 78.9 ± 5.8 Units/g tissue | Level of recovery ([3]; 0.1 mM/kg intraperitoneally): 150.5 | DNA content higher than in animals undergoing hepatectomy alone ([3]; 0.1 mM/kg or 0.2 MM/kg): 15% | Catalase E activity ([3]; 0.2 mM/kg): 20.0 ± 1.92 μgM/min/g tissue × 1000 | DNA content (in mg/g of tissue) ([3]; 0.2 mM/kg): 4.1 ± 0.13 mg/g of tissue | Protein content ([3]; 0.2 mM/kg): 94.8 ± 8.4 Mg/g tissue | RNA content (mg/g of tissue) ([3]; 0.2 mM/kg): 6.96 ± 0.39 mg/g of tissue | SOD activity ([3]; 0.2 mM/kg): 98.0 ± 4.6 Units/g tissue | Level of recovery ([3]; 0.2 mM/kg intraperitoneally): 134.9 | increase of the organ regeneration completeness ratio ([3]; 0.1 and 0.2 mM/kg): 34.9-50.5%
